Source: patent publication US11345712B2, “Protein-targeting compounds and pharmaceutical compositions thereof, and their therapeutic applications” (BioTheryX, Inc., priority 2019, dated 2022)

What follows are compounds tested on MOLM-13 cells (assay: MOLM-13 cell viability assay (CellTiter-Glo)). Settings: 3 days, concentration of 1 μM.
Type: cell-based
Procedure: MOLM-13 cells were cultured in RPMI 1640 media supplemented with 10% fetal bovine serum, streptomycin, and penicillin. The cells were plated in white walled 96-well plates at 2,500 cells/well. The cells were incubated in DMSO (control) or an indicated compound for 3 days at 37° C. and 5% CO2. Following the incubation period, 100 μL of CELLTITER-GLO® (CTG) reagent was added to each well. Following a 10 minutes incubation with shaking, luminescence was measured using an ENVISION® Multimode plate reader.
`CC(C)(C)c1ccc(C(=O)C(=O)NCc2cc3c(s2)C(=O)N(C2CCC(=O)NC2=O)C3)cc1` (centres unmarked) [Compound I-45, 2-(4-(tert-butyl)phenyl)-N-((5-(2,6-dioxopiperidin-3-yl)-6-oxo-5,6-dihydro-4H-thieno[2,3-c]pyrrol-2-yl)methyl)-2-oxoacetamide] was tested, and the “Antiproliferative Activity (inhibition, MOLM-13 cell viability)” value was “B (a value less than 80% but no less than 50%)”.

Same assay, conditions: Homo sapiens, MOLM-13, 72 h, 3 days, concentration of 1 μM, read-out: Antiproliferative Activity (inhibition, MOLM-13 cell viability)
In the case of `Cc1cc(NC(=O)NCc2cc3c(s2)C(=O)N(C2CCC(=O)NC2=O)C3)ccc1N1CCOCC1` (centres unmarked) [II-26, 1-((5-(2,6-dioxopiperidin-3-yl)-6-oxo-5,6-dihydro-4H-thieno[2,3-c]pyrrol-2-yl)methyl)-3-(3-methyl-4-morpholinophenyl)urea], the cytotoxicity at 1 µM is reported as under 25%. `Cc1ccc(NC(=O)NCc2cc3c(s2)C(=O)N(C2CCC(=O)N(COP(=O)(OC(C)(C)C)OC(C)(C)C)C2=O)C3)cc1N(C)C` (centres unmarked) [II-105, di-tert-butyl ((3-(2-((3-(3-(dimethylamino)-4-methylphenyl)ureido)-methyl)-6-oxo-4,6-dihydro-5H-thieno[2,3-c]pyrrol-5-yl)-2,6-dioxopiperidin-1-yl)methyl) phosphate] showed a cytotoxicity at 1 µM of under 25%. Work on `O=C1CCC(N2Cc3c(csc3CNC(=O)C(=O)c3ccc(CN4CCOCC4)cc3)C2=O)C(=O)N1` (centres unmarked) [Compound I-26, 2-(4-(morpholinomethyl)phenyl)-N-((5-(2,6-dioxopiperidin-3-yl)-4-oxo-5,6-dihydro-4H-thieno[3,4-c]pyrrol-1-yl)methyl)-2-oxoacetamide] yielded a cytotoxicity at 1 µM of under 25%. Compound `CN(C)CCOc1ccc(CC(=O)NCc2scc3c2CN(C2CCC(=O)NC2=O)C3=O)cc1` (centres unmarked) [II-80, 2-(4-(2-(dimethylamino)ethoxy)phenyl)-N-((5-(2,6-dioxopiperidin-3-yl)-4-oxo-5,6-dihydro-4H-thieno[3,4-c]pyrrol-1-yl)methyl)acetamide] has a cytotoxicity at 1 µM of under 25%. In the case of `O=C1CCC(N2Cc3cc(CNC(=O)C(=O)c4ccccc4)ccc3C2=O)C(=O)N1` (centres unmarked) [Compound I-83, N-((2-(2,6-dioxopiperidin-3-yl)-1-oxoisoindolin-5-yl)methyl)-2-oxo-2-phenylacetamide], the cytotoxicity at 1 µM is reported as over 80%. `Cc1ccc(NC(=O)NCc2cc3c(s2)C(=O)N(C2CCC(=O)NC2=O)C3)cc1C(C)C` (centres unmarked) [II-54, 1-((5-(2,6-dioxopiperidin-3-yl)-6-oxo-5,6-dihydro-4H-thieno[2,3-c]pyrrol-2-yl)methyl)-3-(3-isopropyl-4-methylphenyl)urea] was tested, and the cytotoxicity at 1 µM was over 80%. For `CN(C)C(C(=O)NCc1scc2c1CN(C1CCC(=O)NC1=O)C2=O)c1ccccc1F` (centres unmarked) [II-108, 2-(dimethylamino)-N-((5-(2,6-dioxopiperidin-3-yl)-4-oxo-5,6-dihydro-4H-thieno[3,4-c]pyrrol-1-yl)methyl)-2-(2-fluorophenyl)acetamide], the cytotoxicity at 1 µM was under 25%. With `Cc1ccc(CC(=O)NCc2scc3c2CN(C2CCC(=O)NC2=O)C3=O)cc1N(C)C` (centres unmarked) [II-68, 2-(3-(dimethylamino)-4-methylphenyl)-N-((5-(2,6-dioxopiperidin-3-yl)-4-oxo-5,6-dihydro-4H-thieno[3,4-c]pyrrol-1-yl)methyl)acetamide] the cytotoxicity at 1 µM was 25 to 50%. `O=C1CCC(N2Cc3c(CNC(=O)C(=O)c4ccc5ccccc5c4)cccc3C2=O)C(=O)N1` (centres unmarked) [Compound I-96, N-((2-(2,6-dioxopiperidin-3-yl)-1-oxoisoindolin-4-yl)methyl)-2-(naphthalen-2-yl)-2-oxoacetamide] was tested, and the cytotoxicity at 1 µM was under 25%. `Cc1ccc(NC(=O)NCc2cc3c(s2)C(=O)N(C2CCC(=O)NC2=O)C3)cc1CN(C)C` (centres unmarked) [II-51, 1-(3-((dimethylamino)methyl)-4-methylphenyl)-3-((5-(2,6-dioxopiperidin-3-yl)-6-oxo-5,6-dihydro-4H-thieno[2,3-c]pyrrol-2-yl)methyl)urea] gave a cytotoxicity at 1 µM of under 25%. Work on `CC(C)(C)c1ccc(C(C(=O)NCc2scc3c2CN(C2CCC(=O)NC2=O)C3=O)C(F)(F)F)cc1` (centres unmarked) [II-147, 2-(4-(tert-butyl)phenyl)-N-((5-(2,6-dioxopiperidin-3-yl)-4-oxo-5,6-dihydro-4H-thieno[3,4-c]pyrrol-1-yl)methyl)-3,3,3-trifluoropropanamide] yielded a cytotoxicity at 1 µM of under 25%. For `CC(C)(C)c1cccc(C(=O)C(=O)NCc2scc3c2CN(C2CCC(=O)NC2=O)C3=O)c1` (centres unmarked) [Compound I-19, 2-(3-tert-butylphenyl)-N-((5-(2,6-dioxopiperidin-3-yl)-4-oxo-5,6-dihydro-4H-thieno[3,4-c]pyrrol-1-yl)methyl)-2-oxoacetamide], the cytotoxicity at 1 µM was over 80%. Work on `O=C1CCC(N2Cc3c(CNC(=O)C(=O)c4ccc(C5CCNCC5)cc4)cccc3C2=O)C(=O)N1` (centres unmarked) [Compound I-66, N-((2-(2,6-dioxopiperidin-3-yl)-1-oxoisoindolin-4-yl)methyl)-2-oxo-2-(4-(piperidin-4-yl)phenyl)acetamide] yielded a cytotoxicity at 1 µM of under 25%. `Cc1cc(CCCC(=O)NCc2scc3c2CN(C2CCC(=O)NC2=O)C3=O)ccc1N(C)C` (centres unmarked) [II-115, 4-(4-(dimethylamino)-3-methylphenyl)-N-((5-(2,6-dioxopiperidin-3-yl)-4-oxo-5,6-dihydro-4H-thieno[3,4-c]pyrrol-1-yl)methyl)butanamide] was tested, and the cytotoxicity at 1 µM was under 25%. In the case of `Cc1ccc(NC(=O)NCc2cc3c(s2)C(=O)N(C2CCC(=O)N(COC(=O)[C@H](N)C(C)C)C2=O)C3)cc1N(C)C` (stereo partly drawn) [II-81, (3-(2-((3-(3-(dimethylamino)-4-methylphenyl)ureido)methyl)-6-oxo-4,6-dihydro-5H-thieno[2,3-c]pyrrol-5-yl)-2,6-dioxopiperidin-1-yl)methyl D-valinate], the cytotoxicity at 1 µM is reported as over 80%. For `Cc1ccc(C(F)(F)C(=O)NCc2cc3c(s2)C(=O)N(C2CCC(=O)NC2=O)C3)cc1Cl` (centres unmarked) [II-38, 2-(3-chloro-4-methylphenyl)-N-((5-(2,6-dioxopiperidin-3-yl)-6-oxo-5,6-dihydro-4H-thieno[2,3-c]pyrrol-2-yl)methyl)-2,2-difluoroacetamide], the cytotoxicity at 1 µM was under 25%. `O=C(CN1CCOCC1)NCc1scc2c1CN(C1CCC(=O)NC1=O)C2=O` (centres unmarked) [II-78, N-((5-(2,6-dioxopiperidin-3-yl)-4-oxo-5,6-dihydro-4H-thieno[3,4-c]pyrrol-1-yl)methyl)-2-morpholinoacetamide] showed a cytotoxicity at 1 µM of under 25%. For `CC(C)c1ccc(C(C(=O)NCc2scc3c2CN(C2CCC(=O)NC2=O)C3=O)C(C)C)cc1` (centres unmarked) [II-106, N-((5-(2,6-dioxopiperidin-3-yl)-4-oxo-5,6-dihydro-4H-thieno[3,4-c]pyrrol-1-yl)methyl)-2-(4-isopropylphenyl)-3-methylbutanamide], the cytotoxicity at 1 µM was under 25%. Compound `O=C1CCC(N2Cc3c(CNC(=O)C(=O)c4ccc(C(F)(F)F)cc4)cccc3C2=O)C(=O)N1` (centres unmarked) [Compound I-75, N-((2-(2,6-dioxopiperidin-3-yl)-1-oxoisoindolin-4-yl)methyl)-2-oxo-2-(4-(trifluoromethyl)phenyl)acetamide] has a cytotoxicity at 1 µM of 25 to 50%. Compound `CC(C)(C)c1ccc(C(=O)C(=O)NCCc2scc3c2CN(C2CCC(=O)NC2=O)C3=O)cc1` (centres unmarked) [Compound I-41, 2-(4-(tert-butyl)phenyl)-N-(2-(5-(2,6-dioxopiperidin-3-yl)-4-oxo-5,6-dihydro-4H-thieno[3,4-c]pyrrol-1-yl)ethyl)-2-oxoacetamide] has a cytotoxicity at 1 µM of over 80%. In the case of `Cc1ccc(C(=O)C(=O)NCc2scc3c2CN(C2CCC(=O)NC2=O)C3=O)cc1N(C)C` (centres unmarked) [Compound I-44, 2-(3-(dimethylamino)-4-methylphenyl)-N-((5-(2,6-dioxopiperidin-3-yl)-4-oxo-5,6-dihydro-4H-thieno[3,4-c]pyrrol-1-yl)methyl)-2-oxoacetamide], the cytotoxicity at 1 µM is reported as over 80%. `O=C1CCC(N2Cc3c(csc3CNC(=O)NCc3c(Cl)cccc3Cl)C2=O)C(=O)N1` (centres unmarked) [II-37, 1-(2,6-dichlorobenzyl)-3-((5-(2,6-dioxopiperidin-3-yl)-4-oxo-5,6-dihydro-4H-thieno[3,4-c]pyrrol-1-yl)methyl)urea] was tested, and the cytotoxicity at 1 µM was over 80%. Compound `O=C1CCC(N2Cc3cc(CNC(=O)C(=O)c4ccccc4F)ccc3C2=O)C(=O)N1` (centres unmarked) [Compound I-86, N-((2-(2,6-dioxopiperidin-3-yl)-1-oxoisoindolin-5-yl)methyl)-2-oxo-2-(2-fluorophenyl)acetamide] has a cytotoxicity at 1 µM of 50 to 80%. `O=C1CCC(N2Cc3c(NC(=O)C(=O)c4ccc(C5(C(F)(F)F)CC5)cc4)cccc3C2=O)C(=O)N1` (centres unmarked) [Compound I-57, N-(2-(2,6-dioxopiperidin-3-yl)-1-oxoisoindolin-4-yl)-2-oxo-2-(4-(1-(trifluoromethyl)cyclopropyl)phenyl)acetamide] showed a cytotoxicity at 1 µM of under 25%. Work on `CCN(CC)c1cc(NC(=O)NCc2cc3c(s2)C(=O)N(C2CCC(=O)NC2=O)C3)ccc1C` (centres unmarked) [II-47, 1-(3-(diethylamino)-4-methylphenyl)-3-((5-(2,6-dioxopiperidin-3-yl)-6-oxo-5,6-dihydro-4H-thieno[2,3-c]pyrrol-2-yl)methyl)urea] yielded a cytotoxicity at 1 µM of over 80%. Compound `CN(C)c1cc(NC(=O)NCc2cc3c(s2)C(=O)N(C2CCC(=O)NC2=O)C3)ccc1F` (centres unmarked) [II-45, 1-(3-(dimethylamino)-4-fluorophenyl)-3-((5-(2,6-dioxopiperidin-3-yl)-6-oxo-5,6-dihydro-4H-thieno[2,3-c]pyrrol-2-yl)methyl)urea] has a cytotoxicity at 1 µM of over 80%. For `CC(=O)Nc1ccc(C(=O)C(=O)NCc2scc3c2CN(C2CCC(=O)NC2=O)C3=O)cc1` (centres unmarked) [Compound I-20, 2-(4-acetamidophenyl)-N-((5-(2,6-dioxopiperidin-3-yl)-4-oxo-5,6-dihydro-4H-thieno[3,4-c]pyrrol-1-yl)methyl)-2-oxoacetamide], the cytotoxicity at 1 µM was under 25%. Work on `CC(C)(C)c1ccc(S(=O)(=O)NCc2scc3c2CN(C2CCC(=O)NC2=O)C3=O)cc1` (centres unmarked) [II-124, 4-(tert-butyl)-N-((5-(2,6-dioxopiperidin-3-yl)-4-oxo-5,6-dihydro-4H-thieno[3,4-c]pyrrol-1-yl)methyl)benzenesulfonamide] yielded a cytotoxicity at 1 µM of under 25%.
